Test results reported in paper PMC8010149, “A Therapeutic Strategy to Combat HIV-1 Latently Infected Cells With a Combination of Latency-Reversing Agents Containing DAG-Lactone PKC Activators” (Frontiers in Microbiology, 2021).

Assays:
J-Lat 10.6 cells = assay type: cell-based, HIV-1
Protocol: The reactivation of HIV-1 from latently infected cells was determined by intracellular p24 protein expression and quantification of p24 antigen in the supernatant (ACH-2 and U1 cells), or by changes in intracellular green fluorescent protein (GFP) expression (J-Lat 10.6 cells). […] The supernatant was collected after 48 h. The increase in supernatant p24 antigen levels was measured using a Lumipulse G1200 (FUJIREBIO, Tokyo, Japan). […] Intracellular p24 protein expression and GFP-positive cells were analyzed by flow cytometry.
Differences between groups were analyzed for statistical significance using unpaired t-tests. Statistical significance was set at p < 0.05. Statistical analyses were performed using GraphPad Prism version 8 (GraphPad Software, La Jolla, CA, United States). CompuSyn software, based on the quantitative analysis of dose-effect relationships between multiple drugs by Chou and Talalay, was utilized to determine the synergism or antagonism of drug combinations ([Chou and Talalay, 1984]). To confirm synergy, this software calculates combination index (CI) values, which further assist in determining the nature of the combination compared to single drug effects. A CI value <1 indicates synergistic effects.

U937 cells = test: Active caspase-3 by flow cytometry in U937 cells; assay type: cell-based; conditions: 10 μM, 24 h
[1] = tested on: HIV-1 latently infected U1 cells; test: HIV-1 latency reversal, p24 antigen in supernatant, U1 cells; assay type: cell-based; conditions: Human immunodeficiency virus 1, 48 h
Protocol: (§1) The reactivation of HIV-1 from latently infected cells was determined by intracellular p24 protein expression and quantification of p24 antigen in the supernatant (ACH-2 and U1 cells), or by changes in intracellular green fluorescent protein (GFP) expression (J-Lat 10.6 cells). J-Lat ([Jordan et al., 2003]), ACH-2, or U1 cells (5 × 10^5 cells/ml) were seeded in 96-well plates and incubated with different drug concentrations for 24 h to collect the cells. The supernatant was collected after 48 h. The increase in supernatant p24 antigen levels was measured using a Lumipulse G1200 (FUJIREBIO, Tokyo, Japan). J-Lat cells (5 × 10^5 cells/ml) were placed in 48-well plates and incubated with different drug concentrations for 24 h. Intracellular p24 protein expression and GFP-positive cells were analyzed by flow cytometry.

[2] = Pharmacokinetics in mice, plasma concentration by LC-MS/MS; assay type: in vivo; conditions: BALB/c mice, 10 mg/kg subcutaneous
Protocol: Blood was drawn from mice at 0.5, 1, 3, 6, 12, and 24 h after subcutaneous administration of YSE028 at a dose of 10 mg/kg. Plasma samples were prepared on ice. Blood was collected in a heparin tube and then separated at 5,000 rpm for 10 min at 4°C. Two hundred microliter of MeOH was added to 40 μl of mouse plasma immediately after plasma collection to terminate the enzymatic hydrolysis of YSE028 during sample preparation. All samples were vortexed for 10s and centrifuged at 12,000 g for 10 min at 4°C. The supernatant was then separated. Alectinib (10 ng/ml) in MeOH was used as an internal standard (IS) and added to the supernatant for liquid chromatography tandem mass spectrometry (LC-MS/MS) analysis.
A Nexera X2 UHPLC system (Shimadzu, Kyoto, Japan) connected to a QTRAP5500 mass spectrometer (AB SCIEX, Framingham, MA, United States) was used for LC-MS/MS analysis. The separation of YSE028 and alectinib (IS) was performed using an XBridge C18 column (2.1 × 50 mm, 3.5 μm, Waters). The mobile phases consisted of 10 mM ammonium formate (A) and MeOH (B). The run time was 6 min with a flow rate of 0.5 ml/min. The oven temperature was set to 40°C, and the autosampler chamber was maintained at 4°C. The gradient elution program was set as follows: 0–3.0 min, 60–80% B; 3.1 min–4.0 min, 95% B; and 4.1 min–6 min, 60% B. The sample injection volume was 5 μl. The electrospray ionization interface in positive mode was used to perform tandem mass spectrometry (MS/MS). The MRM transition for YSE028 was m/z 313.1→187.1. The MS parameters were optimized as follows: desolvation temperature, 500°C; curtain gas (CUR), 40; collision gas (CAD), 7; ionspray voltage (IS), 4500v; ion source gas (GS1), 50 psi; ion source gas (GS2), 80 psi; declustering potential (DP), 110 v; entrance potential (EP), 10v; collision energy (CE), 13v; collision cell exit potential (CXP), 20v.

[3] = tested on: HIV-1 latently infected ACH-2 cells; test: Intracellular HIV-1 p24 by flow cytometry in ACH-2 cells; assay type: cell-based; conditions: 24 h
Protocol: as §1
The amount of intracellular HIV-1 p24 and the active form of caspase-3 were determined by flow cytometry, as previously described ([Matsuda et al., 2015], [2019]). In brief, ACH-2 and U1 cells (2.5 × 10^5 cells/ml) were fixed with 1% paraformaldehyde/PBS for 20 min and permeabilized with Flow Cytometry Perm Buffer (TONBO Biosciences, San Diego, CA, United States). After 5 min of incubation at room temperature, the cells were stained with FITC anti-HIV-1 p24 (24-4) monoclonal antibody (mAb; Santa Cruz Biotechnology, Dallas, TX, United States) or Alexa Fluor 647-conjugated anti-active caspase-3 (C92-605) mAb (BD Pharmingen, San Diego, CA, United States) for 30 min on ice. For T cell activation and exhaustion marker staining, PBMCs from healthy donors separated by the above density gradient centrifugation method were incubated with fixable viability stain Ghost Dye 780 (TONBO Biosciences) for 30 min on ice. The cells were then stained with Brilliant Violet 510 anti-human CD3 (UCHT1) mAb (BioLegend), FITC anti-human CD4 (RPA-T4) mAb (TONBO Biosciences), PE-Cy7 anti-human CD8a (RPA-T8) mAb (TONBO Biosciences), PerCP-Cy5.5 anti-human CD38 (HB-7) mAb (BioLegend), PE anti-human CD69 (FN50) mAb (BioLegend), or Alexa Fluor 647 anti-human CD279/PD-1 (EH12.1) mAb (BD Biosciences, San Jose, CA, United States) for 30 min on ice. Next, the cells were analyzed using BD FACSVerse (BD Biosciences). In the analysis, unstained cells were used as a negative control to set the gating for each experiment. The collected data were analyzed using FlowJo software (Tree Star, San Carlos, CA, United States).

Question: Which “number of GFP+ cells” value (J-Lat 10.6 cells; J-Lat 10.6 cells, 100–400 nM, 24 h) does the source give for CCCC(CCC)C(=O)OCC1(CO)CC(=C(C)C)C(=O)O1 (centres unmarked) [YSE028] here?
Answer: 5.8%

Question: What about the “LRA activity in the presence of 10% mouse serum versus 10% FBS” value (J-Lat 10.6 cells; J-Lat 10.6 cells, 24 h, GFP-positive cells) of the same compound?
Answer: drastically decreased

Question: And the “reactivation after short-term exposure” value (J-Lat 10.6 cells; J-Lat cells, exposure 1 h, wash-out, analysed after 24 h)?
Answer: successfully reactivated

Question: And the caspase-3 activation (U937 cells)?
Answer: 6.35%

Question: And the EC50 [1]?
Answer: 1.81 µM

Question: And the “time within which the concentration in blood decreased rapidly” value [2]?
Answer: ≤ 3 h

Question: What about the “peak concentration (median)” value ([2]; plasma) of the same compound?
Answer: 5.14 ng/mL

Question: What about the Tmax ([2]; mouse, sc, plasma, read-out: time of peak concentration) of the same compound?
Answer: 1 h

Question: And the “intracellular p24-positive live cells (flow cytometry quadrant)” value (“intracellular p24-positive live cells” for short) ([3]; 0.1 µM)?
Answer: 0.889

Question: What about the “intracellular p24-positive live cells” value ([3]; 1 µM) of the same compound?
Answer: 62

Question: What about the “intracellular p24-positive live cells” value ([3]; 10 µM) of the same compound?
Answer: 79.1
